Reference: ChEMBL document CHEMBL1122711, “Design, synthesis, and testing of potential antisickling agents. 4. Structure-activity relationships of benzyloxy and phenoxy acids” (J Med Chem, 1984)

What was measured:
[1] = human, 5000 µM
Description: Solubility ratio ([HbS+drug (5 mM)]/[HbS-drug])

[2] = human, 10000 µM
[3] = human, 20000 µM
Description: Solubility ratio ([HbS+drug (20 mM)]/[HbS-drug]

[4] = human, 40000 µM
Description: Solubility ratio ([HbS+drug (40 mM)]/[HbS-drug])

CC(C)(Oc1ccc(Cl)cc1)C(=O)Oc1ccccc1C(=O)O
Solubility ratio [1]: 1.022 | Solubility ratio [2]: 1.044 | Solubility ratio [3]: 1.153 | Solubility ratio [4]: 1.109
